Laboratory results: ChEMBL document CHEMBL3124892, “Polyphenols bearing cinnamaldehyde scaffold showing cell growth inhibitory effects on the cisplatin-resistant A2780/Cis ovarian cancer cells” (Bioorg Med Chem, 2014)
Activity calls are given as the source filed them. No cut-off for these calls is given here.

Legend:
[1] = Growth inhibition of cisplatin-resistant human A2780cis cells after 7 days by crystal violet staining based clonogenic assay; format: functional; settings: A2780cisR, 168 h
Aurora kinase A = target: T1, Aurora kinase A (Homo sapiens, UniProt O14965); assay: Inhibition of human aurora A kinase using LRRASLG as substrate by scintillation counting in presence of [gamma-33P]ATP
T1 sequence (O14965 whole entry): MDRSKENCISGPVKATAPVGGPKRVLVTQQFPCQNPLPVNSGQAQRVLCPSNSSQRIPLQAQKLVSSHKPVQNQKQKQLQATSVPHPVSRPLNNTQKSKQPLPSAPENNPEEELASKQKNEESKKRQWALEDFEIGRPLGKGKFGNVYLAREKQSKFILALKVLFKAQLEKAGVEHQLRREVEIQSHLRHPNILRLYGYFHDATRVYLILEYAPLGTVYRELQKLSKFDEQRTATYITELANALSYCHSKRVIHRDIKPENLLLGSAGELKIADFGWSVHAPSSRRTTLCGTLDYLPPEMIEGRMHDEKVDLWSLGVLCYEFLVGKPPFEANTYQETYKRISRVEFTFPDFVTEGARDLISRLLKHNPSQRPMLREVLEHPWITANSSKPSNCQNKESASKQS

A2780cisR [2] = assay: Antiproliferative activity against cisplatin-resistant human A2780cis cells after 24 to 48 hrs by cell counting kit-8 analysis; format: functional, cell-based
[3] = Cell cycle arrest in cisplatin-resistant human A2780cis cells assessed as accumulation at G2/M phase at 20 uM after 24 hrs by propidium iodide staining based flow cytometry (reference value: 29.47%); format: functional; settings: A2780cisR
A2780cisR [4] = assay: Antiproliferative activity against cisplatin-resistant human A2780cis cells at 1 to 20 uM by cell counting kit-8 analysis; format: functional, cell-based; settings: TDE = time-dependent effect
A2780cisR [5] = assay: Induction of apoptosis in cisplatin-resistant human A2780cis cells assessed as PARP cleavage at 20 uM after 24 hrs by western blot analysis; format: functional, cell-based
[6] = Cell cycle arrest in cisplatin-resistant human A2780cis cells assessed as accumulation at sub-G1 phase at 20 uM after 24 hrs by propidium iodide staining based flow cytometry (reference value: 7.76%); format: functional; settings: A2780cisR
[7] = Cell cycle arrest in cisplatin-resistant human A2780cis cells assessed as accumulation at G1 phase at 20 uM after 24 hrs by propidium iodide staining based flow cytometry (reference value: 45.33%); format: functional; settings: A2780cisR
[8] = Cell cycle arrest in cisplatin-resistant human A2780cis cells assessed as accumulation at S phase at 20 uM after 24 hrs by propidium iodide staining based flow cytometry (reference value: 17.24%); format: functional; settings: A2780cisR
A2780cisR [9] = assay: Induction of apoptosis in cisplatin-resistant human A2780cis cells assessed as stimulation of caspase 7 cleavage at 20 uM after 24 hrs by western blot analysis; format: functional, cell-based
A2780cisR [10] = assay: Induction of apoptosis in cisplatin-resistant human A2780cis cells assessed as increase in cleaved active caspase-7 level at 20 uM after 24 hrs by immunofluorescent microscopy; format: functional, cell-based
A2780cisR [11] = assay: Induction of apoptosis in cisplatin-resistant human A2780cis cells assessed as shrunken and fragmented nuclei with condensed chromatin at 20 uM after 24 hrs by TO-PRO-3 iodide staining based immunofluorescent microscopy; format: functional, cell-based

Row | SMILES | GI50 ([1]; read-out: GI50) [µM] | GI50 ([1]; read-out: pGI50 (converted)) [µM] | further results
1 | COc1cccc(/C=C/C(=O)c2c(O)cccc2OC)c1OC | 9.67 | 9.8 | 
2 | COc1ccccc1/C=C/C(=O)c1c(O)cccc1OC | 9.55 | 9.57 | 
3 | COc1cccc(/C=C/C(=O)c2c(O)cccc2OC)c1 | 9.64 | 9.57 | 
4 | COc1ccc2c(c1)OCC(C(C)=O)=C2 | > 20 | 20 | 
5 | COc1cc(/C=C/C(=O)c2ccccc2O)cc(OC)c1 | 13.7 | 13.8 | 
6 | COc1ccc(/C=C/C(=O)c2c(O)cccc2OC)cc1 | 15.4 | 15.5 | 
7 | COc1ccc2c(c1)C=C(C(C)=O)CO2 | > 20 | 20 | 
8 | COc1cccc(/C=C/C(=O)c2cc(OC)ccc2O)c1 | 10.1 | 10.3 | 
9 | COc1ccc(/C=C/C(=O)c2c(O)cccc2OC)c(OC)c1 | 9.55 | 9.57 | 
10 | O=C(/C=C/c1ccccc1)c1ccccc1O [2'-HYDROXYCHALCONE] | 13.5 | 13.5 | 
11 | COc1cc(OC)c(OC)cc1/C=C/C(=O)c1c(O)cccc1OC | 19.2 | 19.1 | 
12 | COc1ccc(/C=C/C(=O)c2cc(OC)ccc2O)c(OC)c1 | 19.8 | 20 | 
13 | COc1cc(/C=C/C(=O)c2cc(OC)ccc2O)cc(OC)c1 | 11.3 | 11.2 | 
14 | COc1ccc(/C=C/C(=O)c2ccccc2O)c(OC)c1OC | 14.3 | 14.5 | 
15 | COc1ccccc1/C=C/C(=O)c1ccccc1O | 11.7 | 11.8 | 
16 | COc1ccc(/C=C/C(=O)c2ccccc2O)c(OC)c1 | 15 | 14.8 | 
17 | COc1cc(/C=C/C(=O)c2c(O)cccc2OC)cc(OC)c1 | 11.4 | 11.5 | 
18 | COc1cc(OC)c(/C=C/C(=O)c2c(O)cccc2OC)c(OC)c1 | 3.87 | 3.9 | IC50 (Aurora kinase A): 66.4 µM; Activity (A2780cisR [2]): Dose-dependent effect; Activity [3]: 71%; Activity (A2780cisR [4]): tde; Activity (A2780cisR [5]): Active; Activity [6]: 17.1%; Activity [7]: 3.36%; Activity [8]: 4.33%; Activity (A2780cisR [9]): Active
19 | COc1ccc(/C=C/C(=O)c2ccccc2O)cc1 | 15.9 | 15.9 | 
20 | COc1ccc2c(c1)OCC(C=O)=C2 | > 20 | 20 | 
21 | COc1ccc2c(c1)C=C(C=O)CO2 | > 20 | 20 | 
22 | COc1ccc(/C=C/C(=O)c2c(O)cccc2OC)c(OC)c1OC | 18.4 | 18.2 | 
23 | COc1cccc(/C=C/C(=O)c2ccccc2O)c1OC | 14.4 | 14.5 | 
24 | COc1ccc(O)c(C(=O)/C=C/c2cc(OC)c(OC)cc2OC)c1 | > 20 | 20 | 
25 | COc1cc(OC)c(/C=C/C(=O)c2cc(OC)ccc2O)c(OC)c1 | 3.95 | 3.99 | Activity (A2780cisR [10]): Active; Activity (A2780cisR [2]): Dose-dependent effect; Activity [3]: 68.3%; Activity (A2780cisR [4]): tde; Activity (A2780cisR [11]): Active; Activity (A2780cisR [5]): Active; Activity [6]: 16.5%; Activity [7]: 3.53%; Activity [8]: 4.09%; Activity (A2780cisR [9]): Active
26 | COc1ccc(O)c(C(=O)/C=C/c2cccc(OC)c2OC)c1 | 17 | 17 | 
